Data set [1] has as its system human proliferating CRL9855 monocytes. In words: MTS reduction test (cytotoxicity). As to conditions: free peptides 1–4 nmol/mL, 48 h, triplicate.
Method: (§3) The MTS reduction test was used to evaluate the number of metabolically active cells in culture, under various experimental conditions.
(§4) Briefly, cells were cultivated in 96-well plates (3 × 10^4 CRL9855 cells/mL, 10 × 10^4 HT-29 cells/mL and 5 × 10^4 DU-145 cells/mL) in a total volume of 100 μL. Adherent cells were left for 24 h to adhere to the culture well. Thereafter, NPs and peptides were added at various concentrations and cells were cultivated for 48 h. Non-treated cells were considered as control (CTRL). For background assessment culture medium, NPs and peptides were cultivated in absence of cells, considering that NPs might interfere with the spectrophotometric measurement. All samples were cultivated in triplicate. At the end of the incubation time, 20 μL of MTS reagent were added and samples were cultivated for another 1–3 h until the reaction color was developed. The OD at 490 nm was measured in each sample using a Tecan Sunrise ELISA reader with Magellan universal reader control and data analysis software (Tecan Group Ltd., Mannedorf, Switzerland). Final OD in cellular samples was calculated by subtracting the OD of the corresponding background samples.
The test system of data set [2] is human colon carcinoma HT-29 cells. In words: MTS reduction test (cytotoxicity). As to conditions: free peptides 1–4 nmol/mL, 48 h, triplicate.
Method: as §3, §4
Data set [3] has as its system human prostate carcinoma DU-145 cells. In words: MTS reduction test (cytotoxicity). As to conditions: free peptides 1–4 nmol/mL, 48 h, triplicate.
Method: as §3, §4
The target of data set [4] is neurotensin NTRS1, NTRS2 and NTRS3 receptors. Also on record: method as in printed for the value. As to conditions: target receptors as in Table 3 (NTRS1, NTRS2; SR 14294 also NTRS3); not measured in this paper, ref not given; cited from earlier work.
A short description of data set [5]: in vivo. Also on record: species or system mice. As to conditions: male, NU/J athymic nude, mouse, 3.81 MBq, total radioactivity, Biodistribution. As for the experimental part: (§1) All experiments were conducted according to the guidelines of EU Directive 2010/63 approved by The Romanian National Sanitary Veterinary and Food Safety Authority (NSVFSA, approval no. 442/25.02.2019). Athymic nude male mice (NU/J, 8–10 weeks old) were obtained from The Jackson Laboratory (Bar Harbor, ME, USA). Animals were housed in ventilated cages with a 12-h light-dark cycle and receive food and water ad libitum. Colon/prostate tumours were induced 7–10 days prior the experiments by a subcutaneous injection of 1 × 10^6 HT-29/DU-145 cancer cells. All injected animals were monitored daily until an ideal size of tumour for biodistribution was reached (60–100 mm^3). 3.81 ± 0.51 MBq of ^68Ga-labelled tracers were retro-orbital injected into the ophthalmic venous sinus after intraperitoneal anesthesia with 0.1 mL ketamine/xylazine/acepromazine cocktail: 7.5 mg/mL ketamine (Narkamon Bio, Bioveta, Cluj-Napoca, Romania), 1.5 mg/mL xylazine (Narcoxyl 2, MSD Animal Health, Madison, NJ, USA) and 0.25 mg/mL acepromazine (Sedam, SC Pasteur Filiala Filipesti SRL, Filipestii de Padure, Romania). All animals were sacrificed at 30 min p.i. and the organs were weighted and measured in a dose calibrator (Biodex Medical Systems Inc., Shirley, NY, USA). The biodistribution was calculated as percent of injected dose per gram of organ (% ID/g) ± standard deviation (SD, n = 4 for each injected tracer).
(§2) All the data were expressed as means ± standard deviation (n = 4). Comparison of results among the groups (% ID/g vs. tracers, % ID/g vs. tracers and organs, % ID/g vs. tracers and tumoral cells), was carried out by one-way analysis of variance (ANOVA) and Tukey post-hoc analysis using SPSS v26 (IBM, Armonk, NY, USA) The results were considered significant for a p-value less than 0.05.

The nature of data set [6]: in vivo. Also on record: species or system mice. As to conditions: male, NU/J athymic nude, mouse, 3.81 MBq, total radioactivity, Biodistribution. The protocol:
as §1, §2
This is another data set of the same source.

A short description of data set [7]: Dynamic light scattering of peptide-functionalized gold nanoparticles. As to conditions: cold peptide-functionalized AuNPs, 25 °C; for Hydrodynamic Diameter: DLS, Nano ZS, 633 nm, 90°; for Zeta Potential: DLS/zetasizer. The data set is classed as physicochemical. An excerpt: The reaction between DOTA-peptides and NHS-activated PEG-AuNPs was monitored by detecting changes in nanoparticles size as a peptide layer is formed around nanoparticles. The initial hydrodynamic diameter of bare PEG-AuNPs was 42.56 nm, and after functionalization increased to approximately 73 nm (Figure 1). The electric potential at the boundary of the double layer (counter ions and Stern layer) of nanoparticles, also known as zeta potential is higher than −44 mV. Thus, the peptide-functionalized nanoparticles have sufficient repulsive force to anticipate a good physical stability.
The size distribution and zeta potential of cold peptide functionalized-gold nanoparticles were measured using a Nano ZS zetasizer system (Malvern Instruments, Malvern, UK). Measurement parameters were as follows: a laser wavelength of 633 nm (He-Ne), measurement angle of 90°, measurement temperature of 25 °C, and refractive index of medium n = 1.330.

A further data set concerns HT-29 colon cancer cells. In words: Uptake and retention, rotating radioimmunoassay (LigandTracer Yellow). Type of data set: cell-based, human. As to conditions: HT-29 cells, 2–3 nmol peptide, real-time signal during incubation. The protocol:
The binding kinetic (uptake and retention) of the ^68Ga-labelled peptides and peptide-functionalized gold nanoparticles we investigated using rotating radioimmunoassay. 2–3 nmol of each peptide labelled with ^68Ga was incubated on DU-145 prostate and HT-29 colon cancer cells. After uptake measurement, the radioactive medium was removed and the cells were washed with fresh DMEM-F12 medium. The cell retention is measured after this process, during each rotation of the Petri dish support the detector is measuring only the signal coming from the tracers bound to cells. The results are reported as measured signal during the time of analysis (where t = 0 min is the time of incubation), as illustrated in Figure 3. […]
The retention level is illustrated after the indicator arrows and reflects the percent of activity retained by the cells from the maximum counted during uptake, after hot medium removal and cells washing step. […]
Cells were maintained in culture according to the protocol provided by the depositor. […] Cells at passage 6–9 and were counted before seeding for experimentation by optical microscopy using a Burker-Turk counting chamber, and cell viability was assessed by the trypan blue exclusion test. […]

Peptide text beside a SMILES is read from it. * marks the point of attachment. DOTA = O=C(O)CN1CCN(CC(=O)O)CCN(CC(=O)*)CCN(CC(=O)O)CC1

On to `CSCC[C@H](NC(=O)[C@H](Cc1ccccc1)NC(=O)[C@H](Cc1c[nH]cn1)NC(=O)CNC(=O)[C@@H](NC(=O)[C@H](C)NC(=O)[C@H](Cc1c[nH]c2ccccc12)NC(=O)[C@H](CC(C)C)NC(=O)[C@H](CC(N)=O)NC(=O)CNC(=O)CN1CCN(CC(=O)O)CCN(CC(=O)O)CCN(CC(=O)O)CC1)[C@@H](C)O)C(N)=O` [DOTA-NMB], for which the “Effect on MTS reduction” value in data set [1], in data set [2] and in data set [3] was “do not alter MTS reduction” each time.
Take `Cc1ccc(S(=O)(=O)Nc2ccc3c(c2)c(C(=O)C(F)(F)F)cn3CC(=O)N[C@@H](CC(C)C)C(=O)O)cc1` [NTRC 824]: in data set [4], the equilibrium dissociation constant (Kd) was 38 nM.
Take `COc1cccc(OC)c1-c1cc(C(=O)NC2(C(=O)O)C3CC4CC(C3)CC2C4)nn1-c1ccc(C(=O)N(C)CCCN(C)C)cc1C(C)C` (stereo not drawn) [SR 14294]: the Kd in data set [4] is 10 nM.
With `COc1cccc(OC)c1-c1cc(C(=O)NC2(C(=O)O)C3CC4CC(C3)CC2C4)nn1-c1ccnc2cc(Cl)ccc12` (stereo not drawn) [SR 48692], the Kd in data set [4] was 15 nM.
Take `CSCC[C@H](NC(=O)[C@H](Cc1ccccc1)NC(=O)[C@H](Cc1c[nH]cn1)NC(=O)CNC(=O)[C@@H](NC(=O)[C@H](C)NC(=O)[C@H](Cc1c[nH]c2ccccc12)NC(=O)[C@H](CC(C)C)NC(=O)[C@H](CC(N)=O)NC(=O)CNC(=O)CN1CCN(CC(=O)O)CCN(CC(=O)O)CCN(CC(=O)O)CC1)[C@@H](C)O)C(N)=O` [^68Ga-DOTA-NMB, metal not drawn]: the tissue uptake at 0.5 h in “in vivo [5]” (Bone) was 0.1 ± 0.07 %ID/g; in “in vivo [5]” (Tumour (colon)) it was 1.73 ± 0.08 %ID/g; in “in vivo [6]” (Pancreas), 1.36 ± 0.07 %ID/g; in the data set “in vivo [6]” (Tumour (prostate)), 2.54 ± 0.42 %ID/g.
As for `CC[C@H](C)[C@H](NC(=O)[C@H](Cc1ccc(O)cc1)NC(=O)[C@@H]1CCCN1C(=O)[C@@H](NC(=O)[C@H](CCCCN)NC(=O)CN1CCN(CC(=O)O)CCN(CC(=O)O)CCN(CC(=O)O)CC1)[C@@H](C)CC)C(=O)N[C@@H](CC(C)C)C(=O)O` [^68Ga-DOTA-NMN, metal not drawn] ({DOTA}-KIPYIL-OH; C-terminus assumed), the tissue uptake at 0.5 h in the data set “in vivo [5]” (Bone) is 0.16 ± 0.02 %ID/g; in “in vivo [5]” (Brain) it was 0.04 ± 0.01 %ID/g; in “in vivo [5]” (Heart) it was 1 ± 0.42 %ID/g; in the data set “in vivo [5]” (Kidneys) it was 21.1 ± 1.97 %ID/g; in the data set “in vivo [5]” (Lungs) it was 2.37 ± 0.77 %ID/g; in “in vivo [5]” (Lymph Node), 0.39 ± 0.05 %ID/g. Moreover, the tissue uptake at 0.5 h in the data set “in vivo [5]” (Spleen) is 0.35 ± 0.02 %ID/g; in the data set “in vivo [5]” (Tumour (colon)) it was 2.02 ± 0.02 %ID/g; in “in vivo [6]” (Heart) it was 0.99 ± 0.26 %ID/g; in “in vivo [6]” (Kidneys), roughly 60 %ID/g; in the data set “in vivo [6]” (Lungs), 2.37 ± 0.5 %ID/g; in “in vivo [6]” (Pancreas) it was 0.58 ± 0.02 %ID/g. In the data set “in vivo [6]” (Tumour (prostate)), the tissue uptake at 0.5 h was 1.77 ± 0.5 %ID/g.
For `CSCC[C@H](NC(=O)[C@H](CC(C)C)NC(=O)[C@H](Cc1c[nH]cn1)NC(=O)CNC(=O)[C@@H](NC(=O)[C@H](C)NC(=O)[C@H](Cc1c[nH]c2ccccc12)NC(=O)[C@H](CCC(N)=O)NC(=O)CCOCCOCCOCCOCCNC(=O)CN1CCN(CC(=O)O)CCN(CC(=O)O)CCN(CC(=O)O)CC1)C(C)C)C(N)=O` [^68Ga-DOTA-PEG(4)-BBN(7-14), metal not drawn], the tissue uptake at 0.5 h in the data set “in vivo [5]” (Blood) stood at 6.42 ± 0.27 %ID/g; in “in vivo [5]” (Bone), 0.75 ± 0.06 %ID/g; in the data set “in vivo [5]” (Kidneys) it was 18.7 ± 0.67 %ID/g; in the data set “in vivo [5]” (Lymph Node), 1.1 ± 0.45 %ID/g; in “in vivo [5]” (Tumour (colon)), 3.31 ± 0.76 %ID/g; in the data set “in vivo [6]” (Blood), 6.48 ± 1.53 %ID/g. For the same molecule, the tissue uptake at 0.5 h turned out to be 18 ± 3.78 %ID/g in “in vivo [6]” (Kidneys) and 3.78 ± 0.27 %ID/g in “in vivo [6]” (Tumour (prostate)).
Consider “DOTA-NMB-AuNP: cold DOTA-neuromedin B-functionalized gold nanoparticles”, for which, in data set [7], the “Hydrodynamic Diameter” value is listed as 72.18 nm and the “Zeta Potential” value is recorded as −47.3 mV.
In the same order, the values of “DOTA-NMN-AuNP: cold DOTA-neuromedin N-functionalized gold nanoparticles” are 73.29 nm and −49.6 mV.
Consider “DOTA-NT-AuNP: cold DOTA-neurotensin-functionalized gold nanoparticles”, for which, in data set [7], the “Hydrodynamic Diameter” value was 72.36 nm and the “Zeta Potential” value is −44.4 mV.
For “^68Ga-DOTA-NMB-AuNP: NHS-activated PEG-gold nanoparticles functionalized with ^68Ga-DOTA-Neuromedin B”, the Uptake profile entry in the data set with HT-29 colon cancer cells is “up and down trend”.
On to “^68Ga-DOTA-NT-AuNP: NHS-activated PEG-gold nanoparticles functionalized with ^68Ga-DOTA-NT”, for which the “Hydrodynamic Diameter” value in data set [7] is reported as 72.36 nm.

The values are drawn from PMC7435928, “Preclinical Evaluation of NHS-Activated Gold Nanoparticles Functionalized with Bombesin or Neurotensin-Like Peptides for Targeting Colon and Prostate Tumours” (Molecules, 2020).
